According to patent US9695178B2, “6-(2-pyridyl)-7,8-dihydro-5H-pyrido[4,3-D]pyrimidine analogs as hedgehog pathway signaling inhibitors and therapeutic applications thereof” (Suzhou Yunxuan Yiyao Keji Youxian Gongsi, priority 2013, dated 2017):

These compounds were tested against Smo (Homo sapiens, UniProt Q99835) (assay: Bodipy-Cyclopamine Binding Assay (confirmation assay), Hek293-SMO cells). Details: not given.
Smo, sequence (Q99835 28-787): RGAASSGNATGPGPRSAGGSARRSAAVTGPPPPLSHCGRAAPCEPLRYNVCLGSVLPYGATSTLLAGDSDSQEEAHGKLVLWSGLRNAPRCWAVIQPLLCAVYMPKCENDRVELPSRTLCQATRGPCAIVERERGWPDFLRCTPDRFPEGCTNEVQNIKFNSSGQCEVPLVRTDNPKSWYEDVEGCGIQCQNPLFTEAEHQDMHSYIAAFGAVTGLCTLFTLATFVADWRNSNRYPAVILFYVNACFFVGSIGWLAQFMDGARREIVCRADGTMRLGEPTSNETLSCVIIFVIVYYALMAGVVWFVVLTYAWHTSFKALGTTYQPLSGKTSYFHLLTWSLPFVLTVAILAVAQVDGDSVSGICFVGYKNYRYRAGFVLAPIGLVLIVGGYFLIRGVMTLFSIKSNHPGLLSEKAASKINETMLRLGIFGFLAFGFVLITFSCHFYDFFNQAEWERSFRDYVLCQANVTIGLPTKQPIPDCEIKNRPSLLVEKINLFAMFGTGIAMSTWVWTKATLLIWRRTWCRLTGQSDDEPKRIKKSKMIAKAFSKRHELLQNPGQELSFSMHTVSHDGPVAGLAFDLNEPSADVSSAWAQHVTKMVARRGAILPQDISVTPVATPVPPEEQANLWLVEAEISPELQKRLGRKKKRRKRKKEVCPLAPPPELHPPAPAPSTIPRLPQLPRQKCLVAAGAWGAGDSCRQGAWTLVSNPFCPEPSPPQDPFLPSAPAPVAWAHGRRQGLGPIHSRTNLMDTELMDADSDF

SMILES | IC50
Cc1cnc(-c2cc(N3CCc4nc(N5CC(O)C5)ncc4C3)ncc2Cl)c(C)c1 [Compound A-72, 1-(6-(5′-chloro-3,5-dimethyl-2,4′-bipyridin-2′-yl)-5,6,7,8-tetrahydro-pyrido-[4,3-d]pyrimidin-2-yl)azetidin-3-ol] | 0.283 µM
CSc1ncc2c(n1)C(C)CN(c1cc(-c3ncc(C)cc3C)c(Cl)cn1)C2 (stereo not drawn) [Compound A-74, 6-(5′-chloro-3,5-dimethyl-2,4′-bipyridin-2′-yl)-8-methyl-2-(methylthio)-5,6,7,8-tetrahydro-pyrido-[4,3-d]-pyrimidine] | 0.575 µM
Cc1cnc(-c2cc(N3Cc4cnc(NC5CC5)nc4C(C)C3)ncc2Cl)c(C)c1 (stereo not drawn) [Compound A-75, 6-(5′-chloro-3,5-dimethyl-2,4′-bipyridin-2′-yl)-N-cyclopropyl-8-methyl-5,6,7,8-tetrahydro-pyrido-[4,3-d]pyrimidin-2-amine] | 0.257 µM
Cc1cnc(-c2cc(N3CC(C)(C)c4nc(N5CCC(O)CC5)ncc4C3=O)ncc2Cl)c(C)c1 [Compound A-83, 6-(5′-chloro-3,5-dimethyl-2,4′-bipyridin-2′-yl)-2-(4-hydroxy-piperidin-1-yl)-8,8-dimethyl-7,8-dihydro-pyrido[4,3-d] pyrimidin-5(6H)-one] | 0.211 µM
Cc1cnc(-c2cc(N3CCc4nc(N)ncc4C3)ncc2Cl)c(C)c1 [Compound A-89, 6-(5′-chloro-3,5-dimethyl-2,4′-bipyridin-2′-yl)-5,6,7,8-tetrahydropyrido-[4,3-d]pyrimidin-2-amine] | > 1 µM
CCOC(=O)Nc1ncc2c(n1)CCN(c1cc(-c3ncc(C)cc3C)c(Cl)cn1)C2 [Compound A-90, ethyl 6-(5′-chloro-3,5-dimethyl-2,4′-bipyridin-2′-yl)-5,6,7,8-tetrahydropyrido[4,3-d]pyrimidin-2-ylcarbamate] | 0.408 µM
CCNC(=O)Nc1ncc2c(n1)CCN(c1cc(-c3ncc(C)cc3C)c(Cl)cn1)C2 [Compound A-91, 1-(6-(5′-chloro-3,5-dimethyl-2,4′-bipyridin-2′-yl)-5,6,7,8-tetrahydropyrido-[4,3-d]pyrimidin-2-yl)-3-ethylurea] | > 1 µM
Cc1cnc(-c2cc(N3CCc4nc(NC(=O)NC(C)C)ncc4C3)ncc2Cl)c(C)c1 [Compound A-92, 1-(6-(5′-chloro-3,5-dimethyl-2,4′-bipyridin-2′-yl)-5,6,7,8-tetrahydropyrido-[4,3-d]pyrimidin-2-yl)-3-isopropylurea] | 0.961 µM
Cc1cnc(-c2cc(N3CCc4nc(S(C)(=O)=O)ncc4C3=O)ncc2Cl)c(C)c1 [Compound A-98, 6-(5′-chloro-3,5-dimethyl-2,4′-bipyridin-2′-yl)-2-(methyl-sulfonyl)-7,8-dihydro-pyrido[4,3-d]pyrimidin-5(6H)-one] | 0.835 µM
Cc1cnc(-c2cc(N3CCc4nc(N5CC(C)NC(C)C5)ncc4C3=O)ncc2Cl)c(C)c1 (stereo not drawn) [Compound A-101, 6-(5′-chloro-3,5-dimethyl-2,4′-bipyridin-2′-yl)-2-(3,5-dimethyl-piperazin-1-yl)-7,8-dihydro-pyrido[4,3-d]pyrimidin-5(6H)-one] | 0.253 µM
Cc1cnc(-c2cc(N3CCc4nc(N5CCC(O)C5)ncc4C3=O)ncc2Cl)c(C)c1 (stereo not drawn) [Compound A-105, 6-(5′-chloro-3,5-dimethyl-2,4′-bipyridin-2′-yl)-2-(3-hydroxy-pyrrolidin-1-yl)-7,8-dihydro-pyrido[4,3-d]pyrimidin-5(6H)-one] | 0.272 µM
Cc1ccc(-c2cc(N3CCc4nc(NC5CC5)ncc4C3)ncc2Cl)nc1 [Compound A-110, 6-(5′-chloro-5-methyl-2,4′-bipyridin-2′-yl)-N-cyclopropyl-5,6,7,8-tetrahydropyrido-[4,3-d]pyrimidin-2-amine] | > 1 µM
Clc1cnc(N2CCc3nc(NC4CC4)ncc3C2)cc1-c1ccccn1 [Compound A-113, 6-(5′-chloro-2,4′-bipyridin-2′-yl)-N-cyclopropyl-5,6,7,8-tetrahydropyrido-[4,3-d]pyrimidin-2-amine] | 0.47 µM
FC(F)(F)c1ccc(-c2cc(N3CCc4nc(NC5CC5)ncc4C3)ncc2Cl)nc1 [Compound A-114, 6-(5′-chloro-5-(trifluoro-methyl)-2,4′-bipyridin-2′-yl)-N-cyclopropyl-5,6,7,8-tetrahydro-pyrido-[4,3-d]pyrimidin-2-amine] | > 1 µM
Clc1cnc(N2CCc3nc(NC4CC4)ncc3C2)cc1-c1ncccn1 [Compound A-115, 6-(5-chloro-4-(pyrimidin-2-yl)pyridin-2-yl)-N-cyclopropyl-5,6,7,8-tetrahydropyrido[4,3-d]pyrimidin-2-amine] | > 1 µM
Clc1cnc(N2CCc3nc(NC4CC4)ncc3C2)cc1-c1cnccn1 [Compound A-116, 6-(5-chloro-4-(pyrazin-2-yl)pyridin-2-yl)-N-cyclopropyl-5,6,7,8-tetrahydropyrido[4,3-d]pyrimidin-2-amine] | 0.235 µM
Clc1cnc(N2CCc3nc(NC4CC4)ncc3C2)cc1-c1cccnc1 [Compound A-118, 6-(5′-chloro-3,4′-bipyridin-2′-yl)-N-cyclopropyl-5,6,7,8-tetrahydro-pyrido-[4,3-d]pyrimidin-2-amine] | > 1 µM

Next, values leading:

IC50 | SMILES
0.188 µM | CSc1ncc2c(n1)C(C)(C)CN(c1cc(-c3ncc(C)cc3C)c(Cl)cn1)C2 [Compound A-79, 6-(5′-chloro-3,5-dimethyl-2,4′-bipyridin-2′-yl)-8,8-dimethyl-2-(methylthio)-5,6,7,8-tetrahydro-pyrido-[4,3-d]pyrim-idine]
0.169 µM | CSc1ncc2c(n1)CCN(c1cc(-c3ncc(C)cc3C)c(Cl)cn1)C2=O [Compound A-96, 6-(5′-chloro-3,5-dimethyl-2,4′-bipyridin-2′-yl)-2-(methylthio)-7,8-dihydro-pyrido[4,3-d]pyrimidin-5(6H)-one]
0.169 µM | Clc1cnc(N2CCc3nc(NC4CC4)ncc3C2)cc1-c1nccs1 [Compound A-117, 6-(5-chloro-4-(thiazol-2-yl)pyridin-2-yl)-N-cyclopropyl-5,6,7,8-tetrahydropyrido[4,3-d]pyrimidin-2-amine]
0.167 µM | Cc1cnc(-c2cc(N3Cc4cnc(N5CCCC5)nc4C(C)(C)C3)ncc2Cl)c(C)c1 [Compound A-81, 6-(5′-chloro-3,5-dimethyl-2,4′-bipyridin-2′-yl)-8,8-dimethyl-2-(pyrrolidin-1-yl)-5,6,7,8-tetrahydro-pyrido-[4,3-d]pyrimidine]
0.147 µM | Cc1cnc(-c2cc(N3Cc4cnc(N5CC(C)NC(C)C5)nc4C(C)C3)ncc2Cl)c(C)c1 (stereo not drawn) [Compound A-76, 6-(5′-chloro-3,5-dimethyl-2,4′-bipyridin-2′-yl)-2-(3,5-dimethyl-piperazin-1-yl)-8-methyl-5,6,7,8-tetrahydro-pyrido-[4,3-d]pyrimidine]
0.125 µM | Cc1cnc(-c2cc(N3CC(C)c4nc(N5CCC(O)CC5)ncc4C3=O)ncc2Cl)c(C)c1 (stereo not drawn) [Compound A-78, 6-(5′-chloro-3,5-dimethyl-2,4′-bipyridin-2′-yl)-2-(4-hydroxy-piperidin-1-yl)-8-methyl-7,8-dihydro-pyrido[4,3-d]pyrimidin-5(6H)-one]
0.113 µM | Clc1cnc(N2CCc3nc(NC4CC4)ncc3C2)cc1-c1ccc2ccccc2n1 [Compound A-112, 6-(5-chloro-4-(quinolin-2-yl)pyridin-2-yl)-N-cyclopropyl-5,6,7,8-tetrahydropyrido-[4,3-d]pyrimidin-2-amine]
0.105 µM | Cc1cnc(-c2cc(N3Cc4cnc(N5CC(C)NC(C)C5)nc4C(C)(C)C3)ncc2Cl)c(C)c1 (stereo not drawn) [Compound A-82, 6-(5′-chloro-3,5-dimethyl-2,4′-bipyridin-2′-yl)-2-(3,5-dimethyl-piperazin-1-yl)-8,8-dimethyl-5,6,7,8-tetrahydro-pyrido-[4,3-d]pyrimidine]
0.104 µM | Cc1cnc(-c2cc(N3CCc4nc(NC(=O)C(C)(C)C)ncc4C3)ncc2Cl)c(C)c1 [Compound A-93, N-(6-(5′-chloro-3,5-dimethyl-2,4′-bipyridin-2′-yl)-5,6,7,8-tetrahydropyrido-[4,3-d]pyrimidin-2-yl)pivalamide]
0.0929 µM | Cc1cnc(-c2cc(N3Cc4cnc(N5CCCC5)nc4C(C)C3)ncc2Cl)c(C)c1 (stereo not drawn) [Compound A-77, 6-(5′-chloro-3,5-dimethyl-2,4′-bipyridin-2′-yl)-8-methyl-2-(pyrrolidin-1-yl)-5,6,7,8-tetrahydropyrido[4,3-d]pyrimidine]
0.0841 µM | Cc1cnc(-c2cc(N3CCc4nc(N5CCC(O)CC5)ncc4C3=O)ncc2Cl)c(C)c1 [Compound A-97, 6-(5′-chloro-3,5-dimethyl-2,4′-bipyridin-2′-yl)-2-(4-hydroxypiperidin-1-yl)-7,8-dihydro-pyrido[4,3-d]pyrimidin-5(6H)-one]
0.084 µM | Cc1cnc(-c2cc(N3CCc4nc(OCC5CC5)ncc4C3)ncc2Cl)c(C)c1 [Compound A-73, 6-(5′-chloro-3,5-dimethyl-2,4′-bipyridin-2′-yl)-2-(cyclopropyl-methoxy)-5,6,7,8-tetrahydro-pyrido-[4,3-d]pyrim-idine]
0.0829 µM | Cc1cccnc1-c1cc(N2CCc3nc(NC4CC4)ncc3C2)ncc1Cl [Compound A-111, 6-(5′-chloro-3-methyl-2,4′-bipyridin-2′-yl)-N-cyclopropyl-5,6,7,8-tetrahydropyrido[4,3-d]pyrimidin-2-amine]
0.076 µM | Cc1cnc(-c2cc(N3CCc4nc(NCC5CC5)ncc4C3=O)ncc2Cl)c(C)c1 [Compound A-104, 6-(5′-chloro-3,5-dimethyl-2,4′-bipyridin-2′-yl)-2-(cyclopro-pylmeth-ylamino)-7,8-dihydro-pyrido[4,3-d]pyrimidin-5(6H)-one]
0.0281 µM | Cc1cnc(-c2cc(N3Cc4cnc(NC5CC5)nc4C(C)(C)C3)ncc2Cl)c(C)c1 [Compound A-80, 6-(5′-chloro-3,5-dimethyl-2,4′-bipyridin-2′-yl)-N-cyclopropyl-8,8-dimethyl-5,6,7,8-tetrahydro-pyrido-[4,3-d]pyrimidin-2-amine]

Same assay, conditions: read-out: Kd of bodipy-cyclopamine for WT-Smo; used in the Cheng-Prusoff equation

SMILES | Kd
CC1=C2CC3C(CC=C4C[C@@H](O)CCC43C)C2CCC12O[C@@H]1CC(C)CN(CCNC(=O)CCCCCNC(=O)CCC3=[N+]4C(=Cc5c(C)cc(C)n5[B-]4(F)F)C=C3)C1C2C (stereo partly drawn) [bodipy-cyclopamine, reference compound] | 0.0035 ± 0.0008 µM
